From ChEMBL document CHEMBL1201862, “PubChem BioAssay data set” (2004)
Active and inactive are the calls of the source.

What was measured:
[1] = molecular target: Voltage-gated inwardly rectifying potassium channel KCNH2 (Homo sapiens, UniProt Q12809); details: Potency;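 further: confirmatory quantitative high-throughput screen measuring inhibition of hERG channel activity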
[2] = molecular target: DNA dC->dU-editing enzyme APOBEC-3G (Homo sapiens, UniProt Q9HC16); assay type: functional;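 further: Dose-response counterscreen measuring inhibition of APOBEC3G DNA deaminase activity, run while confirming APOBEC3A inhibitors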
[3] = molecular target: DNA dC->dU-editing enzyme APOBEC-3A (Homo sapiens, UniProt P31941); assay: Dose Response confirmation of small molecule APOBEC3A DNA Deaminase Inhibitors via a fluorescence-based single-stranded DNA deaminase assay. [Related pubchem assays (depositor defined):AID493011, AID493024]; assay type: functional
[4] = molecular target: T1, Carboxy-terminal domain RNA polymerase II polypeptide A small phosphatase 1 (Homo sapiens, UniProt Q9GZU7); assay: CTDSP1 inhibitors, concentration-response, biochemical, absorbance readout, ultra-high-throughput screen actives (AID 540297); assay type: functional
T1 sequence (Q9GZU7 whole entry): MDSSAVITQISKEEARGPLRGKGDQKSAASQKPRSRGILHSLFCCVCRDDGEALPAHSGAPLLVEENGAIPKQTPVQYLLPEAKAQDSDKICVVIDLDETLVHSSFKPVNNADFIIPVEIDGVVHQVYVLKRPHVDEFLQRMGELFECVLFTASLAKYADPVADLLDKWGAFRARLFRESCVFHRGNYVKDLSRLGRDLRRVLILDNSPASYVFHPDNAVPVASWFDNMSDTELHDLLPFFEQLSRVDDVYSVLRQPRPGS

[5] = molecular target: Dual specificity tyrosine-phosphorylation-regulated kinase 1A (Rattus norvegicus, UniProt Q63470); assay type: biochemical, Homo sapiens
Large T antigen = Large T antigen (Simian virus 40, UniProt P03070); assay type: functional, Betapolyomavirus macacae;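 further: Confirmatory-stage PubChem screen for compounds that inhibit SV40 T antigen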
[6] = molecular target: Glucose-6-phosphate 1-dehydrogenase (Homo sapiens, UniProt P11413); assay: inhibition of Homo sapiens G6PD, dose series – biochemical, fluorescence, selectivity assay for P. falciparum G6PD inhibitor project, dose response (AID 504792); assay type: functional
Tumor necrosis factor = Tumor necrosis factor (Homo sapiens, UniProt P01375); assay: analog potency on TNFa NF-kB signaling – cell-based, revised, SAR follow-up (AID 2337); assay type: functional
HEK293 [7] = assay: cells; details: Homo sapiens
[8] = molecular target: T2, Heat shock factor protein 1 (Mus musculus, UniProt P38532); assay: decrease of HSF1-responsive luciferase luminescence – cell-based, NIH3T3, dose retest, confirmation (AID 2382); assay type: functional;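 further: NIH3T3 fibroblasts with HSF1-driven luciferase reporter stressed by proteasome inhibitor MG132; luminescence from HSF1-driven luciferase expression after 8 hours of MG132 stress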
T2 sequence (P38532 whole entry): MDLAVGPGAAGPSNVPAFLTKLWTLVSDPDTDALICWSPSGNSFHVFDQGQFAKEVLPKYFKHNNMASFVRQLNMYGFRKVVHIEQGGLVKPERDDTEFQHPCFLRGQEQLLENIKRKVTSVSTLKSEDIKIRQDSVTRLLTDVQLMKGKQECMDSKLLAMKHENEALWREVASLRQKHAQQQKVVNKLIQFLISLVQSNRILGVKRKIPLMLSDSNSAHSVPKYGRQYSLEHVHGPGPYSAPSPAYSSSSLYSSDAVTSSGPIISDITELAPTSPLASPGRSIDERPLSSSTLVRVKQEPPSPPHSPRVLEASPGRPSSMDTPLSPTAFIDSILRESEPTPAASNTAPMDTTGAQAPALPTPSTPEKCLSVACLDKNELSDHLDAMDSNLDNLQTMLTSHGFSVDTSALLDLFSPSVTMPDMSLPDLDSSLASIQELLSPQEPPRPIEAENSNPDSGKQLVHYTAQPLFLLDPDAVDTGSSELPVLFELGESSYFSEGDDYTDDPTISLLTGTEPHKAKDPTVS

[9] = molecular target: T3, Microphthalmia-associated transcription factor (Homo sapiens, UniProt O75030); assay: reducers of TRPM1 reporter luminescence, concentration series – cell-based, SK-MEL-5, cherry-picked, set 3, MITF inhibitor project, dose response (AID 493073); assay type: functional;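 further: SK-MEL-5 melanoma cells with luciferase driven by the MITF target TRPM1 promoter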
T3 sequence (O75030 whole entry): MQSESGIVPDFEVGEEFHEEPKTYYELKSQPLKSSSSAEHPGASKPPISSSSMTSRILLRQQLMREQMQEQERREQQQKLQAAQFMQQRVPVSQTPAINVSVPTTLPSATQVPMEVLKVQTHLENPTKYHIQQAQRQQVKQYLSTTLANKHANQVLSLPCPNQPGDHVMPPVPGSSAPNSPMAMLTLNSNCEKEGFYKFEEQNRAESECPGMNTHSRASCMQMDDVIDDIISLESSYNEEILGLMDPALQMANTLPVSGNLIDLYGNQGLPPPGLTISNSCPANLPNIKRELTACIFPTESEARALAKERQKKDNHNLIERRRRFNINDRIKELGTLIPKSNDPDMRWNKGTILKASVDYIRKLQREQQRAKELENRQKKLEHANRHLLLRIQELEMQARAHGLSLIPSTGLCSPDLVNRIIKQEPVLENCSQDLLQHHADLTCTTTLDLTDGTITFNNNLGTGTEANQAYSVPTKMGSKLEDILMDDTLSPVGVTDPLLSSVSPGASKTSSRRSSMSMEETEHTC

[10] = molecular target: T4, Nucleotide-binding oligomerization domain-containing protein 1 (Homo sapiens, UniProt Q9Y239); assay: blockers of NOD1 pathway activity – revised, SAR follow-up (AID 2333); assay type: functional
T4 sequence (Q9Y239 whole entry): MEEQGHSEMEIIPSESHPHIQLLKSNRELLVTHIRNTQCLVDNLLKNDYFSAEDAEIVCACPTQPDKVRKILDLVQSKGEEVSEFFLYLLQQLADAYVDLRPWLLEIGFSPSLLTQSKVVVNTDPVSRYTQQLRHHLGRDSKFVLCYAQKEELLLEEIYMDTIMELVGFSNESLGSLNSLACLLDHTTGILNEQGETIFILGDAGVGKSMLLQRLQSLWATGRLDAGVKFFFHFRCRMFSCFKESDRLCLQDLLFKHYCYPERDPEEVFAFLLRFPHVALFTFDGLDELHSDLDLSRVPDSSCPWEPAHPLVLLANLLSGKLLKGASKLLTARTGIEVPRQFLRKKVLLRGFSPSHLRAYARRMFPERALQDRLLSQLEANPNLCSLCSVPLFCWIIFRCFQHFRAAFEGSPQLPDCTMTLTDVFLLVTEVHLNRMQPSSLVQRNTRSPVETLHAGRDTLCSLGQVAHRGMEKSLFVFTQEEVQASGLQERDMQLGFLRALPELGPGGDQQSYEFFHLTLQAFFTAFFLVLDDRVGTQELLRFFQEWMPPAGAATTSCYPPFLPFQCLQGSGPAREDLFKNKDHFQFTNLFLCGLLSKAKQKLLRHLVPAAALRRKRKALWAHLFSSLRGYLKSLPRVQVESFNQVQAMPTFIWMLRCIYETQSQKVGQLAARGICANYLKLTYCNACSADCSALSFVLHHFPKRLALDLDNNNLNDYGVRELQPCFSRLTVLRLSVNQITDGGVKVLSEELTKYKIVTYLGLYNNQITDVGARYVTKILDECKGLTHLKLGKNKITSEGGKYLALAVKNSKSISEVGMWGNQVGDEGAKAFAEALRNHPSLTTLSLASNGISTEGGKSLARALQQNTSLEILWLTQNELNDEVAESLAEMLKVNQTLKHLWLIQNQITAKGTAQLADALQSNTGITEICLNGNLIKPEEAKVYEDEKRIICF

[11] = molecular target: Peroxisome proliferator-activated receptor gamma/Nuclear receptor coactivator 1 (Homo sapiens, UniProt P37231); assay: TR-FRET dose response biochemical High Throughput Screening assay for agonists of the steroid receptor coactivator 1 (SRC-1) recruitment by the peroxisome proliferator-activated receptor gamma (PPAR gamma): non-selective agonists. [Related pubchem assays (depositor defined):AID1300, AID1808, AID504735, AID631]; assay type: protein assay
[12] = molecular target: Peroxisome proliferator-activated receptor gamma/Nuclear receptor coactivator 2 (Homo sapiens, UniProt P37231); assay: TR-FRET dose response biochemical High Throughput Screening assay for agonists of the steroid receptor coactivator 2 (SRC-2) recruitment by the peroxisome proliferator-activated receptor gamma (PPAR gamma): non-selective agonists. [Related pubchem assays: 1297, 1032 ]; assay type: functional
[13] = molecular target: Peroxisome proliferator-activated receptor gamma/Nuclear receptor coactivator 3 (Homo sapiens, UniProt P37231); assay: TR-FRET dose response biochemical High Throughput Screening assay for agonists of the steroid receptor coactivator 3 (SRC-3) recruitment by the peroxisome proliferator-activated receptor gamma (PPAR gamma): non-selective agonists. [Related pubchem assays: 1301 (Confirmation screen.), 1048 (Primary screen.)]; assay type: functional
[14] = tested on: Streptococcus sp. 'group A'; assay: Streptococcus pyogenes SK(-)GAS viability under kanamycin – luminescence, BacTiterGlo, confirmation, counter-screen for streptokinase expression inhibitor project, dose response (AID 1900); assay type: functional, organism-based
HEK293 [15] = assay: NOD2 signaling inhibitors in MDP-stimulated cells, cell-based, uHTS, luminescence (AID 2001); assay type: functional; details: Homo sapiens
HEK293 [16] = assay: cells; assay type: functional, cell-based; details: Homo sapiens
Streptococcus = assay: GAS UMAA2166 growth inhibition – luminescence, BacTiterGlo, counter-screen for streptokinase expression inhibitor project, dose response (AID 1915); assay type: functional, organism-based;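 further: potency for reduction of bacterial viability or growth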
HEK293 [17] = assay: inhibition of NOD1-driven NF-kB reporter – cell-based, luminescence, uHTS, primary screen (AID 1578); assay type: functional; details: Homo sapiens
HEK293 [18] = assay: cells; assay type: functional, cell-based; details: Homo sapiens; remark: listed apart in the source
SUMO-activating enzyme [19] = molecular target: T5, SUMO-activating enzyme (Homo sapiens, UniProt Q9UBT2); assay: blockers of SAE1/SAE2–UBC9 SUMO transfer – biochemical, HTRF, uHTS, primary screen (AID 2006); assay type: protein-complex assay
INS1 = assay: INS-1E survival protection against cytokine death – cell-based, luminescence, retest, dose response (AID 449756); assay type: functional; details: Rattus norvegicus;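 further: cell death triggered by IL-1 beta plus TNF-alpha plus IFN-gamma mixture; protective hits raise ATP signal compared with cytokine alone wells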
SUMO-activating enzyme [20] = molecular target: T5, SUMO-activating enzyme; assay: blockers of UBC9-mediated SUMO conjugation – biochemical, AlphaScreen, SUMOylation inhibitor project, confirmation (AID 2018); assay type: functional
[21] = molecular target: T6, Endoribonuclease toxin MazF (Escherichia coli K-12, UniProt P0AE70); assay: activation of MazEF endoribonuclease cleavage – biochemical, fluorescence, single-stranded RNA substrate, uHTS hits, dose response (AID 588481); assay type: functional
T6 sequence (P0AE70 whole entry): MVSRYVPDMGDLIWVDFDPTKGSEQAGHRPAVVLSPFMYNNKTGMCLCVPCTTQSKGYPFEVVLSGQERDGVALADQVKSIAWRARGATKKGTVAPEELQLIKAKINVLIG

[22] = molecular target: T6, Endoribonuclease toxin MazF; assay: substrate-only fluorescence increase artefacts – biochemical, single-stranded RNase substrate, counter-screen for MazEF activator project, dose response (AID 588502); assay type: functional
[23] = molecular target: T2, Heat shock factor protein 1; assay: enhancement of HSF1-driven luciferase signal – cell-based, NIH3T3, luminescence, dose retest, confirmation (AID 435004); assay type: functional;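 further: stress induced by proteasome inhibitor MG132 added 30 min after compound; luciferase reporter driven by HSF1 response element in NIH3T3 cells; actives raise luminescence as potentiators of the MG132 stress response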
[24] = molecular target: Alkaline phosphatase, placental type (Homo sapiens, UniProt P05187); assay: human placental alkaline phosphatase inhibition – biochemical, luminescence, confirmation (AID 1512); assay type: functional

Sequence of DNA dC->dU-editing enzyme APOBEC-3G (Q9HC16 whole entry): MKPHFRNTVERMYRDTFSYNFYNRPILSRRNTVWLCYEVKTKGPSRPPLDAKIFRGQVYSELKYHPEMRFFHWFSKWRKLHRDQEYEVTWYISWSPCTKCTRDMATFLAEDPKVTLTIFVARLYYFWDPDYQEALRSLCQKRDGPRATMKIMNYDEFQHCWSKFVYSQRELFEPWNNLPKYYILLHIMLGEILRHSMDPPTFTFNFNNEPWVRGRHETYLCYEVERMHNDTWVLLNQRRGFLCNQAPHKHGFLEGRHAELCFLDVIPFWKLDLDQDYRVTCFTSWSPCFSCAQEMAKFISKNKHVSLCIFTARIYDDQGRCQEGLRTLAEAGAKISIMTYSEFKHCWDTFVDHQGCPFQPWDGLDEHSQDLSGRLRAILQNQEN
Sequence of Peroxisome proliferator-activated receptor gamma/Nuclear receptor coactivator 3 (P37231 whole entry): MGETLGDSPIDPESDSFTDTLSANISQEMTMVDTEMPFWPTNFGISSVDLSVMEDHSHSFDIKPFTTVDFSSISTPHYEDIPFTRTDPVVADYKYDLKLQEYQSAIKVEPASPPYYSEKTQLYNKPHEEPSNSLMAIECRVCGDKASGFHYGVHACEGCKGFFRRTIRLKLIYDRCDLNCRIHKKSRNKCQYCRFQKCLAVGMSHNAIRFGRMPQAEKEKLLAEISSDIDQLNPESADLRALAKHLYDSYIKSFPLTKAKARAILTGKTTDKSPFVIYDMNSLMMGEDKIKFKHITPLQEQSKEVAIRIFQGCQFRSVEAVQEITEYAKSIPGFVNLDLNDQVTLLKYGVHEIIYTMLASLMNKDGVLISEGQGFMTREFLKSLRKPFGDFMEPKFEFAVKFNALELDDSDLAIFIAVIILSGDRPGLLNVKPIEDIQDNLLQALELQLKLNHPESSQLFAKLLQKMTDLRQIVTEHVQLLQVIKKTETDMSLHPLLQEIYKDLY
Sequence of Peroxisome proliferator-activated receptor gamma/Nuclear receptor coactivator 3 (Q9Y6Q9 whole entry, further chain): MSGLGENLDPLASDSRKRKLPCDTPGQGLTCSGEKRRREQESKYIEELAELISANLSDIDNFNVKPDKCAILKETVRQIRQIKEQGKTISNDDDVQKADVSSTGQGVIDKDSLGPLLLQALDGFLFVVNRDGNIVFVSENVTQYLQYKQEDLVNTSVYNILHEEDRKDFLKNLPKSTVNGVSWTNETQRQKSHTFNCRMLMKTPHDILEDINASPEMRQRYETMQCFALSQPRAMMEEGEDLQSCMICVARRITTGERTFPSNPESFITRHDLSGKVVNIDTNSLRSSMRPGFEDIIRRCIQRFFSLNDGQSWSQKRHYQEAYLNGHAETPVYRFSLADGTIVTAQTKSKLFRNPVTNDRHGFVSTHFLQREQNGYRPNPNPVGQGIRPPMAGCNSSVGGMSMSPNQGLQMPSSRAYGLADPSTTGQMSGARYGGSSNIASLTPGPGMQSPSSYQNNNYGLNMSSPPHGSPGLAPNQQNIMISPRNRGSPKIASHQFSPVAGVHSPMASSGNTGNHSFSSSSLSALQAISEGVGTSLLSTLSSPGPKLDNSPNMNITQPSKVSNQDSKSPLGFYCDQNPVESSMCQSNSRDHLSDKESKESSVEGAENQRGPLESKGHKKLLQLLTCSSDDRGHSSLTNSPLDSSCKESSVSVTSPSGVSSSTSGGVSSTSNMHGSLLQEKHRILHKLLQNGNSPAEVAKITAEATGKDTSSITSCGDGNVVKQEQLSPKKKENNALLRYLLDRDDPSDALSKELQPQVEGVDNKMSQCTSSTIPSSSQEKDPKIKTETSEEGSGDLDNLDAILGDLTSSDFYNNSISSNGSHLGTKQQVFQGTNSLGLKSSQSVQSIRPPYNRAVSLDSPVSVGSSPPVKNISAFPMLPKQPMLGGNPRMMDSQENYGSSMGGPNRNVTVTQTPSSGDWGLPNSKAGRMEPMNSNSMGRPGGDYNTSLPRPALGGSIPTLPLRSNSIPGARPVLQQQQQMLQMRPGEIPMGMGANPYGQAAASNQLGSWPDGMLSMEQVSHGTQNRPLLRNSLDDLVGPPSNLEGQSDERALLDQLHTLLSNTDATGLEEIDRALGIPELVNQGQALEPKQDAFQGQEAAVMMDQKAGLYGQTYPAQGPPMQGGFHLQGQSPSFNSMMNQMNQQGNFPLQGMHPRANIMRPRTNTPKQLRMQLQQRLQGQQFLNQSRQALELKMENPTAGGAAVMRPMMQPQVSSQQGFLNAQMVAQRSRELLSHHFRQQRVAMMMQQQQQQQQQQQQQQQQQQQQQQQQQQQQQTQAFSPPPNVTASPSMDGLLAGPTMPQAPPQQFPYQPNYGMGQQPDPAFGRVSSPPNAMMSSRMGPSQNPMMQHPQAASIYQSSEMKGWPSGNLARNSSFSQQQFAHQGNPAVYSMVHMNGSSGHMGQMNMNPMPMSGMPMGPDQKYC
Sequence of Peroxisome proliferator-activated receptor gamma/Nuclear receptor coactivator 1 (P37231 whole entry): as the sequence (P37231 whole entry) above
Sequence of Peroxisome proliferator-activated receptor gamma/Nuclear receptor coactivator 1 (Q15788 whole entry, further chain): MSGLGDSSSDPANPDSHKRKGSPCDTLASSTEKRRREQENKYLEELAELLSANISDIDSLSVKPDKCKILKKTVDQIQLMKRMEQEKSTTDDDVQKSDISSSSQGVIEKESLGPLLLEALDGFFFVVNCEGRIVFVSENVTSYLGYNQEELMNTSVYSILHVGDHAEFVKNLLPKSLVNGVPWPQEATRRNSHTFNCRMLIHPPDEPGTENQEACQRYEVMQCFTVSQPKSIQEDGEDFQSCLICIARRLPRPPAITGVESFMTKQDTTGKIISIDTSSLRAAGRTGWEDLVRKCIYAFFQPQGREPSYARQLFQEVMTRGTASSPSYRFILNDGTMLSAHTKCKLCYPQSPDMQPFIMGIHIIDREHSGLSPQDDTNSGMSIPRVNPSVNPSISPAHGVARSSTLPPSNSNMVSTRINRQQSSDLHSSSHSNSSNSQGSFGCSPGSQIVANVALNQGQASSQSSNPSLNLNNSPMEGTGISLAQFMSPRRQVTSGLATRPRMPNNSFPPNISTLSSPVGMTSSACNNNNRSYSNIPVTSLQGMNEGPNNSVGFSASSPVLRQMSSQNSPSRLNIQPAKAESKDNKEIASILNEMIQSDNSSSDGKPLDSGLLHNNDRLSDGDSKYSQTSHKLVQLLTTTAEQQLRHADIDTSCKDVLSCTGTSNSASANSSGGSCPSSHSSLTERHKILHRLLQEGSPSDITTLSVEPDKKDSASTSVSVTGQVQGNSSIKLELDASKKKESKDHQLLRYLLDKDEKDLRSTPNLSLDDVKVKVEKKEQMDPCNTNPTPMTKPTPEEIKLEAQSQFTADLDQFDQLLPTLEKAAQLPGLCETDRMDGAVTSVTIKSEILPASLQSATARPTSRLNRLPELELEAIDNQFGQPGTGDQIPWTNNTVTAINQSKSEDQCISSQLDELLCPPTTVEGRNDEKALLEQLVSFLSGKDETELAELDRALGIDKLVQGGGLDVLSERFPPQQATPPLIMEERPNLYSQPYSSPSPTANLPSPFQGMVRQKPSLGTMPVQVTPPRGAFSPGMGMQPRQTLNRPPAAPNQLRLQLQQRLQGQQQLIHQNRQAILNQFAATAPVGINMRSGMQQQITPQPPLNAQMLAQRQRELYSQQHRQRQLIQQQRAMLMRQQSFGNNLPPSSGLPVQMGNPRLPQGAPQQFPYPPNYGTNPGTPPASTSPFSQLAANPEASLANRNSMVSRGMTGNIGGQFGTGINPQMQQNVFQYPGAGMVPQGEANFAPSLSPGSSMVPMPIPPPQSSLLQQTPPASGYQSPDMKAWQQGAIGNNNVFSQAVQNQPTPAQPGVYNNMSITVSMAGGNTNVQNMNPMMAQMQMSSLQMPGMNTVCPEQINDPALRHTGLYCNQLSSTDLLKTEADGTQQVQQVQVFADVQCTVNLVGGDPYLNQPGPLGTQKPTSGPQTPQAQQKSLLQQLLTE
Sequence of Glucose-6-phosphate 1-dehydrogenase (P11413 whole entry): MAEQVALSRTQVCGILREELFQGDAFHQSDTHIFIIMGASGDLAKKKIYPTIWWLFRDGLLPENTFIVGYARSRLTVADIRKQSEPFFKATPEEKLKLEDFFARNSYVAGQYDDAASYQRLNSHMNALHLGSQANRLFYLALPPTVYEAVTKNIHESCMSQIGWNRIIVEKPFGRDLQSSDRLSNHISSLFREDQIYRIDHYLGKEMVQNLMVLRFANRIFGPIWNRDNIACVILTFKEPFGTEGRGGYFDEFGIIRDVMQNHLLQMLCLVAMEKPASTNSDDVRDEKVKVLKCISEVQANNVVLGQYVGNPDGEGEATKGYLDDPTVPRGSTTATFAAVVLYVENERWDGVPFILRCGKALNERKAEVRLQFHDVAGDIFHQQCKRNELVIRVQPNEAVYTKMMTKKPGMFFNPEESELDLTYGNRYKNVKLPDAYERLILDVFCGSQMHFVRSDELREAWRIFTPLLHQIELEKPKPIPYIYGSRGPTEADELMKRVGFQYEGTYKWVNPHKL
Sequence of DNA dC->dU-editing enzyme APOBEC-3A (P31941 whole entry, the tested form may be a part): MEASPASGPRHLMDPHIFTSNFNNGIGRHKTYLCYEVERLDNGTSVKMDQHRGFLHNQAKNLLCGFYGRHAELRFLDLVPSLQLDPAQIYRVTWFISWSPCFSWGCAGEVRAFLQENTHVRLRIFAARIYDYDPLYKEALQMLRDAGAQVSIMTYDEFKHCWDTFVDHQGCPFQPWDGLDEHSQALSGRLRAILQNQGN

NCC(O)C1CCCCCCC1 (stereo not given)
AC50 [1]: 15.8 µM (inconclusive)

O=C(N=C1NCCS1)C1CCN(S(=O)(=O)c2cc([N+](=O)[O-])ccc2Cl)CC1
IC50 [2]: 52.5 µM (active)
IC50 [3]: 22 µM (active)
IC50 [4]: 3.39 µM (active)

C=CCNC1=N[C@@H](c2ccccc2)C(C(=O)OC)=C(C)N1CCOC
IC50 [2]: 6.15 µM (active)
IC50 [3]: 4.03 µM (active)

NC1=NC(=O)/C(=C\c2ccc(O)c([N+](=O)[O-])c2)S1
AC50 [5]: 1.23 µM (active)

CN(C)CC1CCCCC1OC(=O)Cc1ccc(Cl)c([N+](=O)[O-])c1 (stereo not given)
IC50 [2]: 4.69 µM (active)
IC50 [3]: 2.81 µM (active)

COc1ccc(NC2CCCN(Cc3cccc4cnccc34)C2)cc1OC (stereo not given)
IC50 (Large T antigen): 42.5 µM (active)
IC50 [6]: > 80 µM (inactive)

[O-]/[N+](=C\c1ccccc1)c1ccc(Br)cc1
IC50 [6]: 22.1 µM (inactive)

COCCn1c(C)cc(C(=O)COC(=O)c2ccccc2Br)c1C
IC50 (Tumor necrosis factor): < 0.0391 µM (active)
IC50 (HEK293 [7]): > 20 µM (inactive)
EC50 [8]: < 0.16 µM (active)
AC50 [9]: 1.14 µM (active)
IC50 [10]: 11.3 µM (active)

O=C1c2ccccc2-c2cccc(NS(=O)(=O)c3ccc(C(F)(F)F)cc3)c21
EC50 [11]: > 79.4 µM (inactive)
EC50 [12]: > 79.4 µM (not active)
EC50 [13]: > 79.4 µM (not active)

COC(=O)c1oc2ccc(OC)cc2c1N
AC50 [5]: 1.56 µM (active)

N#Cc1c(O)nc(SCc2cccc(C(F)(F)F)c2)nc1-c1ccccc1
IC50 (HEK293 [7]): > 20 µM (inactive)
EC50 [14]: 2.63 µM (active)
IC50 (HEK293 [15]): 13.2 µM (inactive)
IC50 (HEK293 [16]): > 20 µM (inactive)
EC50 (Streptococcus): 10.3 µM (active)
EC50 (HEK293 [17]): 6.55 µM (active)
IC50 (HEK293 [18]): 19 µM (active)

O=C1C([N-]S(=O)(=O)c2cccs2)=C([n+]2cccc(Cc3ccccc3)c2)C(=O)c2ccccc21
IC50 (SUMO-activating enzyme [19]): 12.9 µM (active)
AC50 (INS1): 2.69 µM (active)
IC50 (SUMO-activating enzyme [20]): 9.51 µM (active)
EC50 [14]: 1.53 µM (active)
EC50 [21]: > 99 µM (inactive)
EC50 [22]: 36.5 µM (inactive)
EC50 (Streptococcus): 1.6 µM (active)
EC50 [23]: > 260 µM (inactive)

CCN(CC(=O)Nc1cccc(F)c1)Cc1nc(O)c2ccccc2n1
IC50 [24]: > 100 µM (inactive)

CCCn1cc(S(=O)(=O)CC(=O)Nc2ccc(OC)cc2OC)c2ccccc21
IC50 [6]: 59.9 µM (inactive)

CCn1c(=O)cc(SCC(=O)Nc2ccc3c(c2)OCO3)c2ccccc21
EC50 [11]: 52.9 µM (inactive)
EC50 [12]: 35.4 µM (not active)
EC50 [13]: > 79.4 µM (not active)

COCCNC(=O)CSc1cc(=O)n(C)c2cc(Cl)ccc12
EC50 [11]: > 79.4 µM (inactive)
EC50 [12]: > 79.4 µM (not active)
EC50 [13]: > 79.4 µM (not active)

O=C(O)C1=CCCN(CCON=C(c2ccccc2)c2ccccc2)C1
AC50 [1]: 35.5 µM (inconclusive)
